The results in this text go back to ChEMBL document CHEMBL6153074, “Discovery of novel dual tubulin and MMPs inhibitors for the treatment of lung cancer and overcoming drug resistance” (Eur J Med Chem, 2025).

The target in one data set is Tubulin (Homo sapiens) (UniProt P68371+Q9H4B7+P0DPH7+P68366+Q13509+Q71U36+P04350+Q3ZCM7+P07437+P68363+Q9BQE3+Q6PEY2+Q13885+Q9BVA1+Q9BUF5). The experiment in a line: Disruption of microtubule network in human A549 cells assessed as cell disorganisation at 2.5 to 5 uM incubated for 24 hrs by immunofluorescence based analysis. Particulars: dose 2.5-5 µM.
The test system of data set [1] is A549. The experiment in a line: Induction of apoptosis in human A549 cells assessed as early apoptotic cells at 0.5 uM incubated for 24 hrs by Annexin V-FITC/PI staining based flow cytometry (reference value: 3.04 %). It is filed as functional.
The test system of data set [2] is A549. Description: Induction of apoptosis in human A549 cells assessed as late apoptotic cells at 0.5 uM incubated for 24 hrs by Annexin V-FITC/PI staining based flow cytometry (reference value: 1.01 %). It is filed as functional. For orientation: In flow cytometry, cells or beads pass a laser one at a time.
The subject of data set [3] is A549. The experiment in a line: Induction of apoptosis in human A549 cells assessed as necrotic cells at 0.5 uM incubated for 24 hrs by Annexin V-FITC/PI staining based flow cytometry (reference value: 0.13 %). It is filed as functional.
The test system of data set [4] is A549. The experiment in a line: Induction of apoptosis in human A549 cells assessed as necrotic cells at 0.25 uM incubated for 24 hrs by Annexin V-FITC/PI staining based flow cytometry (reference value: 0.13 %). It is filed as functional.
The subject of data set [5] is A549. The experiment in a line: Induction of cell cycle arrest in human A549 cells assessed as accumulation at G1 phase at 0.5 uM incubated for 24 hrs by PI staining based flow cytometry (reference value: 58.67 %). It is filed as functional.
Data set [6] concerns A549. The experiment in a line: Induction of cell cycle arrest in human A549 cells assessed as accumulation at G1 phase at 0.25 uM incubated for 24 hrs by PI staining based flow cytometry (reference value: 58.67 %). Format: functional.
Data set [7] has as its system A549. The experiment in a line: Induction of cell cycle arrest in human A549 cells assessed as decrease in cdc25c by Western blot analysis. Format: functional, cell-based. (In general: In western blotting, separated proteins are transferred to a membrane and probed.)
The test system of data set [8] is A549. The experiment in a line: Induction of intracellular ROS accumulation in human A549 cells at 0.25 uM incubated for 24 hrs by DCFH-DA dye based flow cytometry (reference value: 4.96 %). It is filed as functional.
In data set [9] the test system is A549. Description: Induction of apoptosis in human A549 cells assessed as decrease in Bcl-2 level at 0.5 uM incubated for 24 hrs by Western blot analysis. It is filed as functional, cell-based.
Data set [10] concerns A549. Description: Antitumor activity against human A549 cells xenografted in BALB/c mouse at 10 mg/kg, ip for 3 weeks administered on every 2 days relative to control. Particulars: A549, 504 h, read-out: TGI. It is filed as functional. (In general: Xenograft models place foreign cells or tissue in a host animal.)
Data set [11] has as its system A549. The experiment in a line: Antitumor activity against human A549 cells xenografted in BALB/c mouse at 20 mg/kg, ip for 3 weeks administered on every 2 days relative to control. Particulars: A549, 504 h, read-out: TGI. Format: functional.
The nature of data set [12]: Toxicity in BALB/c mouse xenografted with human A549 cells assessed as effect on heart at 10 to 20 mg/kg, ip for 3 weeks administered on every 2 days by H and E staining based analysis. It is filed as organism-based. Particulars: in vivo, 504 h, dose 10-20 mg/kg.
Data set [13] can be described thus: Toxicity in BALB/c mouse xenografted with human A549 cells assessed as effect on lung at 10 to 20 mg/kg, ip for 3 weeks administered on every 2 days by H and E staining based analysis. It is filed as organism-based. The settings on record: in vivo, 504 h, dose 10-20 mg/kg.
Data set [14] in a line: Toxicity in BALB/c mouse xenografted with human A549 cells assessed as effect on kidney at 10 to 20 mg/kg, ip for 3 weeks administered on every 2 days by H and E staining based analysis. Format: organism-based. Particulars: in vivo, 504 h, dose 10-20 mg/kg.

Activity calls are given as the source filed them. The calls are words filed in the database; no cut-off is given here.

Consider `CCOP(=O)(OCC)C(Nc1ccc(CC(=O)Oc2cc(/C=C/C(=O)c3cc(OC)c(OC)c(OC)c3)ccc2OC)cc1)c1cccc([N+](=O)[O-])c1` (stereo not given), for which the outcome on Tubulin (Homo sapiens), in the data set with A549 [7] and in the data set with A549 [9] was Active. Also, the Activity with A549 [1] was determined as 34.86%; in the data set on A549 [2], 6.34%; in the data set with A549 [3] it was 0.93%; in the data set on A549 [4], 0.3%; in the data set with A549 [5], 15.53%; in the data set with A549 [6], 42.09%. Also, the Activity in the data set on A549 [8] is listed as 36.07%; in data set [12] it was “Non-toxic”; in data set [13], “Non-toxic”; in [14], “Non-toxic”. For the same compound, the inhibition in vivo at 10 mg/kg with A549 [10] came to 53.3%. In addition, the inhibition in vivo at 20 mg/kg with A549 [11] amounted to 74.7%.
